Results taken from patent US4021552A, “10-[ω-(BENZOYLPIPERIDINYL)ALKYL]PHENOTHIAZINES” (A. H. Robins Company, Incorporated, priority 1976, dated 1977).
Counter-ions that a name gives are not always drawn. Like-named read-outs stand apart in the source and are kept apart here.

Tests used:
[1] = acute toxicity (72 hour LD50) in mice; details: mouse, in vivo, IP, read-out: 72 hour LD50 (95% Confidence Limits)
[2] = system: d-amphetamine lethality in mice; assay: block of lethal effects of d-amphetamine in aggregated mice (modified procedure of Burn and Hobbs); type: in vivo; details: Mus musculus
Description: Intern. Pharmacodyn. 113: 290 (1958).
Effects of different pretreatment time intervals
on d-amphetamine lethality in mice

[3] = IP, mice, 1 hr. pretreatment, read-out: Protective ED50 (95% confidence limits)
[4] = IP, mice, 4 hrs. pretreatment, read-out: Protective ED50 (95% confidence limits)
[5] = IP, mice, 8 hrs. pretreatment, read-out: Protective ED50 (95% confidence limits)
[6] = IP, mice, 16 hrs. pretreatment, read-out: Protective ED50 (95% confidence limits)

Row | SMILES | LD50 at 72 h [1] [mg/kg] | ED50 [2, 3] [mg/kg] | ED50 [2, 4] [mg/kg] | ED50 [2, 5] [mg/kg] | ED50 [2, 6] [mg/kg] | ED50 ([2]; ip, running text: administered I.P. in mice, after 16 hours, read-out: ED50) [mg/kg]
1 | CC(=O)c1ccc2c(c1)N(CCCN1CCC(C(=O)c3ccc(F)cc3)CC1)c1ccccc1S2 [Example 6, 2-Acetyl-10-[3-(4-p-fluorobenzoylpiperidiny)propyl] phenothiazine Difumarate Sesquihydrate] | 287 | 0.14 | 0.1 | 0.06 | 0.76 | 
2 | O=C(c1ccc(F)cc1)C1CCN(CCCN2c3ccccc3Sc3ccc(Cl)cc32)CC1 [Example 7, 2-Chloro-10-[3-(4-p-fluorobenzoylpiperidinyl)propyl] phenothiazine Hydrochloride Hydrate (1:4)] | 248 | 0.17 | 0.53 | 0.19 | 0.72 | 0.72
3 | O=C(c1ccc(F)cc1)C1CCN(CCCN2c3ccccc3Sc3ccccc32)CC1 [Example 1, 10-[3-(4-p-Fluorobenzoylpiperidinyl)propyl]phenothiazine Fumarate Hydrate (1:4)] | 330 | 0.94 | 0.35 | 1.27 | 12.1 | 
4 | O=C(c1ccc(F)cc1)C1CCN(CCCN2c3ccccc3Sc3ccc(C(F)(F)F)cc32)CC1 [Example 4, 2-Trifluoromethyl-10-[3-(4-p-fluorobenzoylpiperidinyl)propyl]phenothiazineFumarate] | 317 | 1.44 | 3.5 | 1.4 | 1.89 | 
